In ChEMBL document CHEMBL1629667, “Activities of dalbavancin against a worldwide collection of 81,673 gram-positive bacterial isolates” (2009):
Values after ≈ are worked out from the molar mass of the structure shown.

Legend:
Type in all cases: functional
Enterococcus faecalis [1] = test: Antimicrobial activity against Vancomycin-nonsusceptible Enterococcus faecalis assessed as percent resistant isolates by broth microdilution method
Enterococcus faecium [2] = test: Antimicrobial activity against Vancomycin-nonsusceptible Enterococcus faecium assessed as percent resistant isolates by broth microdilution method
Enterococcus faecium [3] = test: Antimicrobial activity against Vancomycin-susceptible Enterococcus faecium assessed as percent resistant isolates by broth microdilution method
Enterococcus faecalis [4] = test: Antimicrobial activity against Vancomycin-susceptible Enterococcus faecalis by broth microdilution method
Enterococcus faecalis [5] = test: Antimicrobial activity against Vancomycin-nonsusceptible Enterococcus faecalis by broth microdilution method
Enterococcus faecium [6] = test: Antimicrobial activity against Vancomycin-susceptible Enterococcus faecium by broth microdilution method
Enterococcus faecium [7] = test: Antimicrobial activity against Vancomycin-nonsusceptible Enterococcus faecium by broth microdilution method
Enterococcus faecalis [8] = test: Antimicrobial activity against Vancomycin-susceptible Enterococcus faecalis assessed as percent susceptible isolate by broth microdilution method
Enterococcus faecalis [9] = test: Antimicrobial activity against Vancomycin-nonsusceptible Enterococcus faecalis assessed as percent susceptible isolate by broth microdilution method
Enterococcus faecium [10] = test: Antimicrobial activity against Vancomycin-susceptible Enterococcus faecium assessed as percent susceptible isolate by broth microdilution method
Enterococcus faecium [11] = test: Antimicrobial activity against Vancomycin-nonsusceptible Enterococcus faecium assessed as percent susceptible isolate by broth microdilution method
Enterococcus faecalis [12] = test: Antimicrobial activity against Vancomycin-susceptible Enterococcus faecalis assessed as percent resistant isolates by broth microdilution method
Streptococcus [13] = test: Antimicrobial activity against viridans group Streptococcus assessed as percent resistant isolates by broth microdilution method
Staphylococcus aureus [14] = test: Antimicrobial activity against Oxacillin-susceptible Staphylococcus aureus assessed as percent resistant isolates by broth microdilution method
Staphylococcus aureus [15] = test: Antimicrobial activity against Oxacillin-resistant Staphylococcus aureus assessed as percent resistant isolate by broth microdilution method
Staphylococcus aureus [16] = test: Antimicrobial activity against Oxacillin-susceptible Staphylococcus aureus by broth microdilution method
Staphylococcus aureus [17] = test: Antimicrobial activity against Oxacillin-resistant Staphylococcus aureus by broth microdilution method
Staphylococcus [18] = test: Antimicrobial activity against Oxacillin-susceptible coagulase-negative Staphylococcus by broth microdilution method
Staphylococcus [19] = test: Antimicrobial activity against Oxacillin-resistant coagulase-negative Staphylococcus by broth microdilution method
Streptococcus [20] = test: Antimicrobial activity against Beta-hemolytic Streptococcus by broth microdilution method
Streptococcus [21] = test: Antimicrobial activity against viridans group Streptococcus by broth microdilution method
Staphylococcus aureus [22] = test: Antimicrobial activity against Oxacillin-susceptible Staphylococcus aureus assessed as percent susceptible isolate by broth microdilution method
Staphylococcus aureus [23] = test: Antimicrobial activity against Oxacillin-resistant Staphylococcus aureus assessed as percent susceptible isolate by broth microdilution method
Staphylococcus [24] = test: Antimicrobial activity against Oxacillin-susceptible coagulase-negative Staphylococcus assessed as percent susceptible isolate by broth microdilution method
Staphylococcus [25] = test: Antimicrobial activity against Oxacillin-resistant coagulase-negative Staphylococcus assessed as percent susceptible isolate by broth microdilution method
Streptococcus [26] = test: Antimicrobial activity against Beta-hemolytic Streptococcus assessed as percent susceptible isolate by broth microdilution method
Streptococcus [27] = test: Antimicrobial activity against viridans group Streptococcus assessed as percent susceptible isolate by broth microdilution method
Staphylococcus [28] = test: Antimicrobial activity against Oxacillin-susceptible coagulase-negative Staphylococcus assessed as percent resistant isolate by broth microdilution method
Staphylococcus [29] = test: Antimicrobial activity against Oxacillin-resistant coagulase-negative Staphylococcus assessed as percent resistant isolate by broth microdilution method
Streptococcus [30] = test: Antimicrobial activity against Beta-hemolytic Streptococcus assessed as percent resistant isolates by broth microdilution method

Compound | MIC50 (Enterococcus faecalis [4]) [µg/mL] | MIC90 (Enterococcus faecalis [4]) [µg/mL] | Activity (Enterococcus faecalis [8]) [%] | Activity (Enterococcus faecalis [9]) [%] | Activity (Enterococcus faecium [10]) [%] | Activity (Enterococcus faecium [11]) [%] | MIC50 (Staphylococcus aureus [16]) [µg/mL] | MIC90 (Staphylococcus aureus [16]) [µg/mL] | MIC50 (Staphylococcus [18]) [µg/mL] | MIC90 (Staphylococcus [18]) [µg/mL] | MIC (Streptococcus [20]) [µg/mL] | MIC50 (Streptococcus [20]) [µg/mL] | MIC90 (Streptococcus [20]) [µg/mL] | MIC50 (Streptococcus [21]) [µg/mL] | MIC90 (Streptococcus [21]) [µg/mL] | Activity (Staphylococcus aureus [22]) [%] | Activity (Staphylococcus [24]) [%] | Activity (Staphylococcus [25]) [%] | Activity (Streptococcus [26]) [%] | Activity (Streptococcus [27]) [%] | other results
CC1(C)S[C@@H]2[C@H](NC(=O)[C@H](N)c3ccccc3)C(=O)N2[C@H]1C(=O)O [AMPICILLIN] | ≤ 2 | ≤ 2 | 99.6 | 96 | 15.6 | 0.8 |  |  |  |  |  |  |  |  |  |  |  |  |  |  | Activity (Enterococcus faecalis [1]): 4%; Activity (Enterococcus faecium [2]): 99.2%; Activity (Enterococcus faecium [3]): 84.4%; MIC (Enterococcus faecalis [4]): ≤ 2 µg/mL; MIC (Enterococcus faecalis [5]): ≤ 2 µg/mL; MIC50 (Enterococcus faecalis [5]): ≤ 2 µg/mL; MIC90 (Enterococcus faecalis [5]): 4 µg/mL (≈ 11.4 µM); MIC50 (Enterococcus faecium [6]): > 16 µg/mL; MIC90 (Enterococcus faecium [6]): > 16 µg/mL; MIC50 (Enterococcus faecium [7]): > 16 µg/mL; MIC90 (Enterococcus faecium [7]): > 16 µg/mL; Activity (Enterococcus faecalis [12]): 0.2%
CC[C@H]1OC(=O)[C@H](C)[C@@H](O[C@H]2C[C@@](C)(OC)[C@@H](O)[C@H](C)O2)[C@H](C)[C@@H](O[C@@H]2O[C@H](C)C[C@H](N(C)C)[C@H]2O)[C@](C)(O)C[C@@H](C)C(=O)[C@H](C)[C@@H](O)[C@]1(C)O [ERYTHROMYCIN] |  |  |  |  |  |  | ≤ 0.25 | > 2 | ≤ 0.25 | > 2 | 0.25 (≈ 0.341 µM) | 0.25 (≈ 0.341 µM) | 2 (≈ 2.73 µM) | 0.25 (≈ 0.341 µM) | 2 (≈ 2.73 µM) | 78.7 | 66 | 24.1 | 79.6 | 56 | Activity (Streptococcus [13]): 41.7%; Activity (Staphylococcus aureus [14]): 20.7%; Activity (Staphylococcus aureus [15]): 88.8%; MIC (Staphylococcus aureus [16]): ≤ 0.25 µg/mL; MIC50 (Staphylococcus aureus [17]): > 2 µg/mL; MIC (Staphylococcus [18]): ≤ 0.25 µg/mL; MIC50 (Staphylococcus [19]): > 2 µg/mL; MIC (Streptococcus [21]): 0.25 µg/mL (≈ 0.341 µM); Activity (Staphylococcus aureus [23]): 10.9%; Activity (Staphylococcus [28]): 33.6%; Activity (Staphylococcus [29]): 75.4%
CO/N=C(\C(=O)N[C@@H]1C(=O)N2C(C(=O)O)=C(CSc3nc(=O)c(O)nn3C)CS[C@H]12)c1csc(N)n1 [CEFTRIAXONE] |  |  |  |  |  |  |  |  |  |  | 0.25 (≈ 0.451 µM) | 0.25 (≈ 0.451 µM) | 0.25 (≈ 0.451 µM) | 0.25 (≈ 0.451 µM) | 1 (≈ 1.8 µM) |  |  |  | 99.9 | 92.5 | Activity (Streptococcus [13]): 4.3%; MIC (Streptococcus [21]): 0.25 µg/mL (≈ 0.451 µM)
CCC[C@@H]1C[C@@H](C(=O)N[C@@H]([C@H]2O[C@H](SC)[C@H](O)[C@@H](O)[C@H]2O)[C@H](C)Cl)N(C)C1 [CLINDAMYCIN] |  |  |  |  |  |  | ≤ 0.25 | ≤ 0.25 | ≤ 0.25 | ≤ 0.25 | 0.25 (≈ 0.588 µM) | 0.25 (≈ 0.588 µM) | 0.25 (≈ 0.588 µM) | 0.25 (≈ 0.588 µM) | 0.5 (≈ 1.18 µM) | 95.8 | 93.5 | 57 | 91.4 | 89.8 | Activity (Streptococcus [30]): 19.9%; Activity (Streptococcus [13]): 9.5%; Activity (Staphylococcus aureus [14]): 4%; Activity (Staphylococcus aureus [15]): 52.1%; MIC (Staphylococcus aureus [16]): ≤ 0.25 µg/mL; MIC50 (Staphylococcus aureus [17]): > 2 µg/mL; MIC90 (Staphylococcus aureus [17]): > 2 µg/mL; MIC (Staphylococcus [18]): ≤ 0.25 µg/mL; MIC90 (Staphylococcus [19]): > 2 µg/mL; MIC (Streptococcus [21]): 0.25 µg/mL (≈ 0.588 µM); Activity (Staphylococcus aureus [23]): 47.8%; Activity (Staphylococcus [28]): 5.7%; Activity (Staphylococcus [29]): 41.7%
GENTAMICIN | < 500 | > 1000 | 68.5 | 28.4 | 61.8 | 64.3 | < 2 | < 2 | < 2 | < 2 |  |  |  |  |  | 97.1 | 95 | 50.7 |  |  | Activity (Enterococcus faecalis [1]): 71.6%; Activity (Enterococcus faecium [2]): 35.7%; Activity (Staphylococcus aureus [14]): 2.6%; Activity (Enterococcus faecium [3]): 38.2%; Activity (Staphylococcus aureus [15]): 24.8%; MIC50 (Staphylococcus aureus [17]): < 2 µg/mL; MIC90 (Staphylococcus aureus [17]): > 8 µg/mL; MIC50 (Staphylococcus [19]): 4 µg/mL; MIC90 (Staphylococcus [19]): > 8 µg/mL; Activity (Staphylococcus aureus [23]): 74.1%; Activity (Staphylococcus [28]): 3.1%; Activity (Staphylococcus [29]): 35.3%; Activity (Enterococcus faecalis [12]): 31.5%
CN[C@H]1C(=O)N[C@@H]2Cc3ccc(cc3)Oc3cc4cc(c3O[C@@H]3O[C@H](C(=O)O)[C@@H](O)[C@H](O)[C@H]3NC(=O)CCCCCCCCC(C)C)Oc3ccc(cc3Cl)[C@@H](O)[C@@H]3NC(=O)[C@H](NC(=O)[C@@H]4NC(=O)[C@@H](NC2=O)c2cc(cc(O)c2Cl)Oc2cc1ccc2O)c1ccc(O)c(c1)-c1c(O[C@H]2O[C@H](CO)[C@@H](O)[C@H](O)[C@@H]2O)cc(O)cc1[C@@H](C(=O)NCCCN(C)C)NC3=O [DALBAVANCIN] | ≤ 0.03 | 0.06 (≈ 0.033 µM) | >99.9 | 27.8 | 99.6 | 11.4 | 0.06 (≈ 0.033 µM) | 0.06 (≈ 0.033 µM) | ≤ 0.03 | 0.06 (≈ 0.033 µM) | 0.03 (≈ 0.0165 µM) | 0.03 (≈ 0.0165 µM) | 0.03 (≈ 0.0165 µM) | 0.03 (≈ 0.0165 µM) | 0.03 (≈ 0.0165 µM) | 100 | 99.8 | 99.2 | 100 | 100 | MIC50 (Staphylococcus aureus [17]): 0.06 µg/mL (≈ 0.033 µM); MIC90 (Staphylococcus aureus [17]): 0.06 µg/mL (≈ 0.033 µM); MIC (Staphylococcus [18]): ≤ 0.03 µg/mL; MIC90 (Staphylococcus [19]): 0.12 µg/mL (≈ 0.0661 µM); MIC (Enterococcus faecalis [4]): ≤ 0.03 µg/mL; MIC50 (Enterococcus faecalis [5]): > 4 µg/mL; MIC90 (Enterococcus faecalis [5]): > 4 µg/mL; MIC50 (Enterococcus faecium [6]): 0.06 µg/mL (≈ 0.033 µM); MIC90 (Enterococcus faecium [6]): 0.12 µg/mL (≈ 0.0661 µM); MIC50 (Enterococcus faecium [7]): > 4 µg/mL; MIC90 (Enterococcus faecium [7]): > 4 µg/mL; MIC (Streptococcus [21]): 0.03 µg/mL (≈ 0.0165 µM)
CC1(C)S[C@@H]2[C@H](NC(=O)Cc3ccccc3)C(=O)N2[C@H]1C(=O)O [PENICILLIN G] |  |  |  |  |  |  |  |  |  |  | 0.015 (≈ 0.0449 µM) | 0.015 (≈ 0.0449 µM) | 0.06 (≈ 0.179 µM) | 0.06 (≈ 0.179 µM) | 1 (≈ 2.99 µM) |  |  |  | 99.9 | 71.7 | Activity (Streptococcus [13]): 6%
CN(C)[C@@H]1C(O)=C(C(N)=O)C(=O)[C@@]2(O)C(O)=C3C(=O)c4c(O)cccc4[C@@](C)(O)[C@H]3C[C@@H]12 [TETRACYCLINE] |  |  |  |  |  |  | ≤ 4 | ≤ 4 | ≤ 4 | > 8 |  |  |  |  |  | 93.7 | 86.7 | 83.4 |  |  | Activity (Staphylococcus aureus [14]): 5.8%; Activity (Staphylococcus aureus [15]): 18.4%; MIC (Staphylococcus aureus [16]): ≤ 4 µg/mL; MIC90 (Staphylococcus aureus [17]): > 8 µg/mL; MIC (Staphylococcus [18]): ≤ 4 µg/mL; Activity (Staphylococcus aureus [23]): 81.1%; Activity (Staphylococcus [28]): 12.6%; Activity (Staphylococcus [29]): 15.8%
O=C(O)c1cn(C2CC2)c2cc(N3CCNCC3)c(F)cc2c1=O [CIPROFLOXACIN] | 1 (≈ 3.02 µM) | > 4 | 62.2 | 3.7 | 8.1 | 0.7 |  |  |  |  |  |  |  |  |  |  |  |  |  |  | Activity (Enterococcus faecalis [1]): 96.3%; Activity (Enterococcus faecium [3]): 83.7%; MIC50 (Enterococcus faecalis [5]): > 4 µg/mL; MIC90 (Enterococcus faecalis [5]): > 4 µg/mL; MIC50 (Enterococcus faecium [6]): > 4 µg/mL; MIC90 (Enterococcus faecium [6]): > 4 µg/mL; MIC50 (Enterococcus faecium [7]): > 4 µg/mL; MIC90 (Enterococcus faecium [7]): > 4 µg/mL; Activity (Enterococcus faecalis [12]): 33.6%
